# Patent US20100004250A1, “PTERIDINE DERIVATIVES AS POLO-LIKE KINASE INHIBITORS USEFUL IN THE TREATMENT OF CANCER” (CHROMA THERAPEUTICS LTD., priority 2006, published 2010)
# Experiments:
# PLK1 = target: T1, PLK1 (Homo sapiens, UniProt P53350); assay: PLK1 enzyme assay (Z'-LYTE, Invitrogen); type: biochemical; settings: ATP at or close to Km, 60 minute kinase reaction; read-out: Inhibitor Activity vs PLK1
# T1 construct: purchased Invitrogen (Paisley, UK), assay service
# Procedure: The ability of compounds to inhibit PLK-1 kinase activity was measured in an assay performed by Invitrogen (Paisley, UK). The Z′-LYTE™ biochemical assay employs a fluorescence-based, coupled-enzyme format and is based on the differential sensitivity of phosphorylated and non-phosphorylated peptides to proteolytic cleavage. The peptide substrate is labelled with two fluorophores—one at each end—that make up a FRET pair. In the primary reaction, the kinase transfers the gamma-phosphate of ATP to a single serine or threonine residue in a synthetic FRET-peptide. In the secondary reaction, a site-specific protease recognizes and cleaves non-phosphorylated FRET-peptides. Phosphorylation of FRET-peptides suppresses cleavage by the Development Reagent. Cleavage disrupts FRET between the donor (i.e., coumarin) and acceptor (i.e., fluorescein) fluorophores on the FRET-peptide, whereas uncleaved, phosphorylated FRET-peptides maintain FRET. A […] method, which calculates the ratio (the Emission Ratio) of donor emission to acceptor emission after excitation of the donor fluorophore at 400 nm, is used to quantitate reaction progress.
# The final 10 μl Kinase Reaction consists of 2.8-25.3 ng PLK1, 2 μM Ser/Thr 16 Peptide substrate and ATP in 50 mM HEPES pH 7.5, 0.01% BRIJ-35, 10 mM MgCl2, 1 mM EGTA. The assay is performed at an ATP concentration at, or close to, the Km. After the 60 minute Kinase Reaction incubation at room temperature, 5 μl of a 1:8 dilution of Development Reagent is added. The assay plate is incubated for a further 60 minutes at room temperature and read on a fluorescence plate reader.
# Duplicate data points are generated from a ⅓ log dilution series of a stock solution of test compound in DMSO. Nine dilutions steps are made from a top concentration of 10 μM, and a “no compound” blank is included. Data is collected and analysed using XLfit software from IDBS. The dose response curve is curve fitted to model number 205 (sigmoidal dose-response model). From the curve generated, the concentration giving 50% inhibition is determined and reported.
# HCT 116 cell line = assay: Cell inhibition assay (WST-1 proliferation); type: cell-based; settings: Homo sapiens, 120 hrs incubation, read-out: Inhibitor Activity vs HCT 116 cell line
# Procedure: Cells were seeded in 96W tissue culture plates (1 well=30 mm^2) at a density of 500 cells per well in 50 μl of the appropriate culture medium (see below). 24 hrs later 50 μl of the compound prepared in the same medium was added as 4 fold dilutions to give final concentrations in the range 0.15 nM-2500 nM (n=6 for each concentration). The plates were then incubated at 37° C., 5% CO2 for 120 hrs. Cell proliferation was assessed using WST-1 (a metabolic indicator dye, Roche Cat no. 1 644 807) according to the manufacturers instructions. The results were calculated as percentage of vehicle response and IC50 values represent the concentration of compound that inhibited the vehicle response by 50%.
# HCT-116 Culture Medium—Dulbeccos MEM (Sigma D6546) plus 10% heat inactivated fetal calf serum (Hyclone SH30071 Thermo Fischer Scientific) containing 2 mM Glutamine (Sigma cat no G-7513) and 50 U/ml Penicillin and Streptomycin Sulphate (Sigma Cat no P-0781).
# T1 sequence (P53350 whole entry): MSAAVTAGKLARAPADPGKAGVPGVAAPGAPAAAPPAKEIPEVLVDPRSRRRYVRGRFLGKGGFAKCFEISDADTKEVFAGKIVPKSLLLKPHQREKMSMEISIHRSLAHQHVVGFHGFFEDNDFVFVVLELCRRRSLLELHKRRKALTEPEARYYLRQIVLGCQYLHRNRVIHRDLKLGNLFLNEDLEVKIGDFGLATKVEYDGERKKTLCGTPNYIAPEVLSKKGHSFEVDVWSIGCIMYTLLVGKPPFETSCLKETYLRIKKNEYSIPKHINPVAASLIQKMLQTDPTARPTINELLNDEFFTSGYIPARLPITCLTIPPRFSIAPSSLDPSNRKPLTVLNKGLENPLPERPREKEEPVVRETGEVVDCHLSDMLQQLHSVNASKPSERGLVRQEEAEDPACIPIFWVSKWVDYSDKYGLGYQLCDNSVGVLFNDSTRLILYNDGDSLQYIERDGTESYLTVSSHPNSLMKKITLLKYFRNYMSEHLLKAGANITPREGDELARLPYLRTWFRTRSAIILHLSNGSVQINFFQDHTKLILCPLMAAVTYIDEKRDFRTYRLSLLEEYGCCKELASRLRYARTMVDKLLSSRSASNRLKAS
SMILES,IC50 (PLK1),IC50 (HCT 116 cell line)
"CC[C@@H]1C(=O)N(C)c2cnc(Nc3ccc(C(=O)NC4CCN(CCCC(=O)N[C@@H](C(=O)OC5CCCC5)c5ccccc5)CC4)cc3OC)nc2N1C1CCCC1 [Example 4, Cyclopentyl (2R)-[(4-{4-[(4-{[(7R)-8-cyclopentyl-7-ethyl-5-methyl-6-oxo-5,6,7,8-tetrahydropteridin-2-yl]amino}-3-methoxybenzoyl)amino]piperidin-1-yl}butanoyl)amino](phenyl)acetate]",< 100 nM,< 100 nM
"CC[C@@H]1C(=O)N(C)c2cnc(Nc3ccc(CCCCCC(=O)N[C@@H](CC(C)C)C(=O)OC4CCCC4)cc3F)nc2N1C1CCCC1 [Example 15, Cyclopentyl N-[6-(4-{[(7R)-8-cyclopentyl-7-ethyl-5-methyl-6-oxo-5,6,7,8-tetrahydropteridin-2-yl]amino}-3-fluorophenyl)hexanoyl]-L-leucinate]",> 500 nM,> 500 nM
"CC[C@@H]1C(=O)N(C)c2cnc(Nc3ccc(C(=O)NCCCC(=O)N[C@@H](CC(C)C)C(=O)OC4CCCC4)cc3OC)nc2N1C1CCCC1 [Example 13, Cyclopentyl N-{4-[(4-{[(7R)-8-cyclopentyl-7-ethyl-5-methyl-6-oxo-5,6,7,8-tetrahydropteridin-2-yl]amino}-3-methoxybenzoyl)amino]butanoyl}-L-leucinate]",100 to 500 nM,100 to 500 nM
"CC[C@@H]1C(=O)N(C)c2cnc(Nc3ccc(C(=O)N[C@H]4CC[C@@H](CCC(=O)N[C@@H](CC(C)C)C(=O)OC5CCCC5)CC4)cc3OC)nc2N1C1CCCC1 [Example 17, Cyclopentyl N-(3-{cis-4-[(4-{[(7R)-8-cyclopentyl-7-ethyl-5-methyl-6-oxo-5,6,7,8-tetrahydropteridin-2-yl]amino}-3-methoxybenzoyl)amino]cyclohexyl}propanoyl)-L-leucinate]",< 100 nM,< 100 nM
"CC[C@@H]1C(=O)N(C)c2cnc(Nc3c(F)cc(/C=C/CCCC(=O)N[C@@H](CC(C)C)C(=O)OC4CCCC4)cc3F)nc2N1C1CCCC1 [Example 16, Cyclopentyl N-[(5E)-6-(4-{[(7R)-8-cyclopentyl-7-ethyl-5-methyl-6-oxo-5,6,7,8-tetrahydropteridin-2-yl]amino}-3,5-difluorophenyl)hex-5-enoyl]-L-leucinate]",100 to 500 nM,> 500 nM
"CC[C@@H]1C(=O)N(C)c2cnc(Nc3ccc(/C=C/CCCC(=O)N[C@@H](CC(C)C)C(=O)OC4CCCC4)cc3F)nc2N1C1CCCC1 [Example 14, Cyclopentyl N-[(5E)-6-(4-{[(7R)-8-cyclopentyl-7-ethyl-5-methyl-6-oxo-5,6,7,8-tetrahydropteridin-2-yl]amino}-3-fluorophenyl)hex-5-enoyl]-L-leucinate]",100 to 500 nM,> 500 nM

# Continued, values first:
IC50 (PLK1),IC50 (HCT 116 cell line),SMILES
100 to 500 nM,< 100 nM,"CC[C@@H]1C(=O)N(C)c2cnc(Nc3ccc(C(=O)NC4CCN(CC(=O)N[C@@H](CC(C)C)C(=O)OC5CCCC5)CC4)cc3OC)nc2N1C1CCCC1 [Example 7, Cyclopentyl N-({4-[(4-{[(7R)-8-cyclopentyl-7-ethyl-5-methyl-6-oxo-5,6,7,8-tetrahydropteridin-2-yl]amino}-3-methoxybenzoyl)amino]piperidin-1-yl}acetyl)-L-leucinate]"
< 100 nM,< 100 nM,"CC[C@@H]1C(=O)N(C)c2cnc(Nc3ccc(C(=O)NC4CCN(CCNC(=O)N[C@@H](CC(C)C)C(=O)OC5CCCC5)CC4)cc3OC)nc2N1C1CCCC1 [Example 8, Cyclopentyl N-[(2-{4-[(4-{[(7R)-8-cyclopentyl-7-ethyl-5-methyl-6-oxo-5,6,7,8-tetrahydropteridin-2-yl]amino}-3-methoxybenzoyl)amino]piperidin-1-yl}ethyl)carbamoyl]-L-leucinate]"
100 to 500 nM,> 500 nM,"CC[C@@H]1C(=O)N(C)c2cnc(Nc3ccc(C(=O)NC4CCN(CCCC(=O)N[C@@H](C(=O)OC5CCCC5)C5CCCCC5)CC4)cc3OC)nc2N1C1CCCC1 [Example 5, Cyclopentyl (2R)-cyclohexyl [(4-{4-[(4-{[(7R)-8-cyclopentyl-7-ethyl-5-methyl-6-oxo-5,6,7,8-tetrahydropteridin-2-yl]amino}-3-methoxybenzoyl)amino]piperidin-1-yl}butanoyl)amino]acetate]"
100 to 500 nM,< 100 nM,"CC[C@@H]1C(=O)N(C)c2cnc(Nc3ccc(C(=O)NC4CCN(CCNC(=O)N[C@H](C(=O)OC5CCCC5)C5CCCCC5)CC4)cc3OC)nc2N1C1CCCC1 [Example 10, Cyclopentyl (2S)-cyclohexyl{[(2-{4-[(4-{[(7R)-8-cyclopentyl-7-ethyl-5-methyl-6-oxo-5,6,7,8-tetrahydropteridin-2-yl]amino}-3-methoxybenzoyl)amino]piperidin-1-yl}ethyl)carbamoyl]amino}acetate]"
< 100 nM,< 100 nM,"CC[C@@H]1C(=O)N(C)c2cnc(Nc3ccc(C(=O)NC4CCN(CCOC(=O)N[C@@H](CC(C)C)C(=O)OC5CCCC5)CC4)cc3OC)nc2N1C1CCCC1 [Example 11, Cyclopentyl N-[(2-{4-[(4-{[(7R)-8-cyclopentyl-7-ethyl-5-methyl-6-oxo-5,6,7,8-tetrahydropteridin-2-yl]amino}-3-methoxybenzoyl)amino]piperidin-1-yl}ethoxy)carbonyl]-L-leucinate]"
< 100 nM,< 100 nM,"CC[C@@H]1C(=O)N(C)c2cnc(Nc3ccc(C(=O)NC4CCN(CCCC(=O)N[C@H](CC(C)C)C(=O)OC5CCCC5)CC4)cc3OC)nc2N1C1CCCC1 [Example 2, Cyclopentyl N-(4-{4-[(4-{[(7R)-8-cyclopentyl-7-ethyl-5-methyl-6-oxo-5,6,7,8-tetrahydropteridin-2-yl]amino}-3-methoxybenzoyl)amino]piperidin-1-yl}butanoyl)-D-leucinate]"
< 100 nM,< 100 nM,"CC[C@@H]1C(=O)N(C)c2cnc(Nc3ccc(C(=O)NC4CCN(CCCC(=O)N[C@H](C(=O)OC5CCCC5)c5ccccc5)CC4)cc3OC)nc2N1C1CCCC1 [Example 3, Cyclopentyl (2S)-[(4-{4-[(4-{[(7R)-8-cyclopentyl-7-ethyl-5-methyl-6-oxo-5,6,7,8-tetrahydropteridin-2-yl]amino}-3-methoxybenzoyl)amino]piperidin-1-yl}butanoyl)amino](Phenyl)acetate]"
